We go through 1 molecule from ChEMBL document CHEMBL4706474, “Tetrahydro-2-naphthyl and 2-Indanyl Triazolopyrimidines Targeting Plasmodium falciparum Dihydroorotate Dehydrogenase Display Potent and Selective Antimalarial Activity” (J Med Chem, 2016).

The nature of data set [1]: AUC (0 to infinity) in Sprague-Dawley rat at […], iv administered as infusion for 10 mins by LC-MS analysis. The format is ADME, organism-based. The arrangement: route intravenous, time 10 min, dose 1.6 mg/kg. Conditions: in vivo.
Data set [2] can be described thus: Unbound Cmax in Sprague-Dawley rat at 17.5 mg/kg, po measured over 24 hrs by LC-MS analysis. It counts as ADME, organism-based. The conditions noted are these: in vivo.
The nature of data set [3]: Inhibition of yeast DHODH expressed in Plasmodium falciparum. More on the design: species or system Saccharomyces cerevisiae.
Data set [4] is described as follows: Protein binding in Sprague-Dawley rat plasma at […], iv administered as infusion for 10 mins by LC-MS analysis. It counts as ADME, organism-based. The conditions noted are these: dose 1.6 mg/kg, read-out: PPB (converted).
In data set [5] the target is Voltage-gated inwardly rectifying potassium channel KCNH2 (Homo sapiens, UniProt Q12809).
Description: Inhibition of human ERG by patch clamp electrophysiology assay

The term AUC denotes the area under the concentration-time curve, a measure of exposure. A higher AUC goes with high exposure. The EC50 is the midpoint of the concentration-response curve. Low readings indicate a more potent agent, high ones a less potent agent. A word on the IC50: it is the midpoint of a concentration-inhibition curve. A low value points to inhibition by little substance.

Voltage-gated inwardly rectifying potassium channel KCNH2, sequence (Q12809 whole entry): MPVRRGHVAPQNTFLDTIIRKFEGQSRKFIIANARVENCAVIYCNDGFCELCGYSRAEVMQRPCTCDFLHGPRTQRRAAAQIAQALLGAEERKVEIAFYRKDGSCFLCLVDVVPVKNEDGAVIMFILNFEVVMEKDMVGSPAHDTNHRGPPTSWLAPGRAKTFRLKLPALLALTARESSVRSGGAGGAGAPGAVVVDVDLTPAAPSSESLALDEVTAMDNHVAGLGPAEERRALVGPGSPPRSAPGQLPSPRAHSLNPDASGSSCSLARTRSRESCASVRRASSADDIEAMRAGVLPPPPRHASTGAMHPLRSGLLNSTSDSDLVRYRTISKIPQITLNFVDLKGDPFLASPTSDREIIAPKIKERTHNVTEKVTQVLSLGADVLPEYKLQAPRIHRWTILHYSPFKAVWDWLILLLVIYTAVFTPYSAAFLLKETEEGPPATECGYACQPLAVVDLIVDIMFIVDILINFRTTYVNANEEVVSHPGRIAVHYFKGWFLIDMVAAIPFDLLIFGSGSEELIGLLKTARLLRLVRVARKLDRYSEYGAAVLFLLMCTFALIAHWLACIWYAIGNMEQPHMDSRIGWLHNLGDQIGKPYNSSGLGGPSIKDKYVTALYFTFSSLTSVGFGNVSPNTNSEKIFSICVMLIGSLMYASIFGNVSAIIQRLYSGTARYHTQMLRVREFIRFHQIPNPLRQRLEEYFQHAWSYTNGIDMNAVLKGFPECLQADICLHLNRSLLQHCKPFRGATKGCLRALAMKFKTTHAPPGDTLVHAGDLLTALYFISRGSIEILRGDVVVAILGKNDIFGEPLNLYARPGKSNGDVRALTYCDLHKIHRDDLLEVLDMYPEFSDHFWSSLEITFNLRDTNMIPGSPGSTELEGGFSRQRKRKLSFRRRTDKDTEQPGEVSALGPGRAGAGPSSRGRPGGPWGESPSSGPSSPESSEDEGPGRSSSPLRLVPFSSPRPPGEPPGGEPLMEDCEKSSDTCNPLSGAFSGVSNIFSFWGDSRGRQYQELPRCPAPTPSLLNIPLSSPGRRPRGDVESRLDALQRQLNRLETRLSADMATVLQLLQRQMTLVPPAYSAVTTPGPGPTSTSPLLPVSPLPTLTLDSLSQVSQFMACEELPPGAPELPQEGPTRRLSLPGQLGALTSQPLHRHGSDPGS

`Cc1cc(N[C@H]2CCc3ccc(Cl)cc3C2)n2nc(C(C)(F)F)nc2n1` registered an area under the curve (AUC) in data set [1] of 3.5 µM·h. Further, in data set [2], the fCmax was found to be 0.12 µM. For the same molecule, the EC50 in data set [3] came to 8.6 µM. For the same molecule, in data set [4], the fraction unbound at 10 min is 0.035. In data set [5], this molecule registered an IC50 of 1.5 µM.
